Measurements: the supplement of paper PMC10307832

Tests used:
Assay in all cases: relative viability (nuclei count vs DMSO), 5 days (fraction); higher = more cells survive
XMD14-99 + Dasatinib = compound: CN1CCN(CC1)C2=CC(=C(C=C2)NC3=NC(=C(S3)C(=O)C4=C(C=CC=C4Cl)Cl)N)OC [XMD14-99] + Cc1nc(Nc2ncc(C(=O)Nc3c(C)cccc3Cl)s2)cc(N2CCN(CCO)CC2)n1 [Dasatinib] (partner 0.075 µM)
How it was run: (§1)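 Each reported value is a median over duplicate plates. It expresses relative viability: treated-well nuclei count divided by vehicle-well nuclei count. Lung cancer cell lines in 1536-well plates were dosed by pin tool a day after seeding, alone with one drug or with a fixed anchor-drug dose plus five library-drug doses (not always all listed) in √10 steps, and nuclei were counted after 5 days.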

AZD1208 + Foretinib = compound: N[C@@H]1CCCN(c2c(/C=C3\SC(=O)NC3=O)cccc2-c2ccccc2)C1 [AZD1208] + COc1cc2c(Oc3ccc(NC(=O)C4(C(=O)Nc5ccc(F)cc5)CC4)cc3F)ccnc2cc1OCCCN1CCOCC1 [Foretinib] (partner 0.25 µM)
How it was run: as §1

AZD1208 + Crizotinib = compound: N[C@@H]1CCCN(c2c(/C=C3\SC(=O)NC3=O)cccc2-c2ccccc2)C1 [AZD1208] + C[C@@H](Oc1cc(-c2cnn(C3CCNCC3)c2)cnc1N)c1c(Cl)ccc(F)c1Cl [Crizotinib] (partner 1 µM)
How it was run: as §1

XMD14-99 + Alpelisib = compound: CN1CCN(CC1)C2=CC(=C(C=C2)NC3=NC(=C(S3)C(=O)C4=C(C=CC=C4Cl)Cl)N)OC [XMD14-99] + Cc1nc(NC(=O)N2CCC[C@H]2C(N)=O)sc1-c1ccnc(C(C)(C)C(F)(F)F)c1 [Alpelisib] (partner 2 µM)
How it was run: as §1

Cell Line | relative viability (XMD14-99 + Dasatinib; first compound 0.08 µM) | relative viability (XMD14-99 + Dasatinib; first compound 0.8 µM) | relative viability (XMD14-99 + Dasatinib; first compound 2.53 µM) | relative viability (XMD14-99 + Dasatinib; first compound 8 µM) | relative viability (AZD1208 + Foretinib; first compound 0.08 µM) | relative viability (AZD1208 + Foretinib; first compound 0.253 µM) | relative viability (AZD1208 + Foretinib; first compound 0.8 µM) | relative viability (AZD1208 + Foretinib; first compound 2.53 µM) | relative viability (AZD1208 + Foretinib; first compound 8 µM) | relative viability (AZD1208 + Crizotinib; first compound 0.08 µM) | relative viability (AZD1208 + Crizotinib; first compound 0.253 µM) | relative viability (AZD1208 + Crizotinib; first compound 0.8 µM) | relative viability (AZD1208 + Crizotinib; first compound 2.53 µM) | relative viability (AZD1208 + Crizotinib; first compound 8 µM) | relative viability (XMD14-99 + Alpelisib; first compound 0.08 µM) | relative viability (XMD14-99 + Alpelisib; first compound 0.8 µM) | relative viability (XMD14-99 + Alpelisib; first compound 2.53 µM) | relative viability (XMD14-99 + Alpelisib; first compound 8 µM)
NCI-H1755 | 0.404 | 0.405 | 0.4 | 0.369 | 0.908 | 0.892 | 0.851 | 0.861 | 0.787 | 0.863 | 0.939 | 0.8 | 0.777 | 0.728 | 0.945 | 0.908 | 0.886 | 0.648
NCI-H1915 | 0.28 | 0.289 | 0.293 | 0.236 | 1.12 | 1.09 | 1.11 | 1.11 | 1.03 | 0.847 | 0.982 | 0.865 | 0.885 | 0.845 | 1.09 | 0.984 | 0.955 | 0.925
NCI-H1944 | 0.193 | 0.239 | 0.222 | 0.201 | 0.829 | 0.838 | 0.774 | 0.688 | 0.571 | 1.14 | 1.16 | 0.985 | 1.01 | 0.827 | 0.902 | 0.867 | 0.805 | 0.755
NCI-H1975 | 0.307 | 0.304 | 0.312 | 0.248 | 1.06 | 0.959 | 0.855 | 0.853 | 0.972 | 0.925 | 1.03 | 0.991 | 0.933 | 0.915 | 0.715 | 0.605 | 0.553 | 0.378
NCI-H1993 | 0.656 | 0.539 | 0.457 | 0.489 | 0.763 | 0.664 | 0.581 | 0.71 | 0.713 | – | 0.678 | 0.759 | 0.735 | 0.728 | 0.63 | 0.731 | 0.601 | 0.59
NCI-H2009 | 0.263 | 0.294 | 0.261 | 0.164 | 1.23 | 1.2 | 1.14 | 1.26 | 1.16 | 1.07 | 1.14 | 0.972 | 1.06 | 0.979 | 1.14 | 1.13 | 1.13 | 0.968
NCI-H2023 | 0.536 | 0.607 | 0.739 | 0.404 | 0.811 | 0.462 | 0.795 | 0.805 | 0.634 | 0.618 | 0.514 | 0.563 | 0.6 | 0.446 | 0.614 | 0.527 | 0.646 | 0.534
NCI-H2085 | 0.267 | 0.261 | 0.273 | 0.241 | 0.965 | 0.97 | 1.23 | 0.886 | 0.748 | 0.703 | 0.906 | 0.951 | 0.865 | 0.882 | 0.92 | 0.866 | 0.889 | 0.728
NCI-H2087 | 0.739 | 0.714 | 0.55 | 0.305 | 1.17 | 1.26 | 0.89 | 0.977 | 0.988 | 1.06 | 1.13 | 0.812 | 0.993 | 0.979 | 1.03 | 0.801 | 0.827 | 0.549
NCI-H2126 | 0.617 | 0.632 | 0.513 | 0.402 | 1.19 | 0.834 | 0.766 | 1.09 | 0.931 | 0.993 | 1.04 | 0.991 | 1.01 | 0.974 | 0.745 | 0.75 | 0.723 | 0.647
NCI-H2170 | 0.612 | 0.62 | 0.601 | 0.592 | 1.07 | 1.07 | 1.08 | 1.03 | 0.878 | 1.18 | 1.2 | 1.01 | 1.12 | 0.836 | 0.771 | 0.762 | 0.854 | 0.734
NCI-H2228 | 0.376 | 0.451 | 0.405 | 0.148 | 0.78 | 0.809 | 0.635 | 0.842 | 0.761 | 0.327 | 0.501 | 0.399 | – | 0.427 | 0.927 | 0.528 | 0.492 | 0.188
NCI-H2347 | 0.284 | 0.308 | 0.352 | 0.204 | 0.867 | 0.671 | 0.987 | 0.917 | 0.742 | 0.626 | 0.626 | 0.582 | 0.648 | 0.588 | 0.995 | 0.984 | 0.958 | 0.572
NCI-H2405 | 0.21 | 0.204 | 0.209 | 0.173 | 1.03 | 1 | 0.991 | 1.06 | 0.993 | 0.831 | 0.86 | 0.782 | 0.81 | 0.838 | 0.792 | 0.895 | 0.809 | 0.416
NCI-H3122 | 0.81 | 0.745 | 0.754 | 0.503 | 0.991 | 1.05 | 0.924 | 1.08 | 0.945 | 0.264 | 0.246 | 0.241 | 0.254 | 0.285 | 0.76 | 0.741 | 0.542 | 0.319
PC-3 [JPC-3] | 0.915 | 0.972 | 0.99 | 0.907 | 1.11 | 1.06 | 1.14 | 1.13 | 1.04 | 1.01 | 0.996 | 1.04 | 1.05 | 0.982 | 1.06 | 0.947 | 0.916 | 0.893
PC-14 | 0.254 | 0.226 | 0.224 | 0.11 | 1.02 | 1.06 | 1.06 | 1.04 | 0.999 | 0.925 | 1.02 | 0.991 | 0.923 | 0.906 | 0.813 | 0.921 | 0.901 | 0.73
RERF-LC-KJ | 0.883 | 0.869 | 0.764 | 0.608 | 0.865 | 0.859 | 0.682 | 0.7 | 0.546 | 0.868 | 0.863 | 0.835 | 0.791 | 0.792 | 0.718 | 0.917 | 0.75 | 0.588
